Measured values taken from PubChem BioAssay (NCI).
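Five compound concentrations were applied to cells in 96-well plates for 48 hours; endpoints were derived by simple linear interpolation of the resulting dose-response curve. GI50 marks 50% less growth. TGI marks complete inhibition of growth.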

Assays:
Assay in all cases: NCI anticancer screen, dose series, 48 h
[1] = test system: NCI-H460 lung
[2] = test system: NCI-H522 lung
[3] = test system: NCI/ADR-RES ovarian
[4] = test system: OVCAR-3 ovarian
[5] = test system: OVCAR-4 ovarian
[6] = test system: OVCAR-5 ovarian
[7] = test system: OVCAR-8 ovarian
[8] = test system: PC-3 prostate
[9] = test system: RPMI-8226 leukemia
[10] = test system: RXF 393 renal
[11] = test system: SF-268 CNS
[12] = test system: SF-295 CNS
[13] = test system: SF-539 CNS
[14] = test system: SK-MEL-2 melanoma
[15] = test system: SK-MEL-28 melanoma
[16] = test system: SK-MEL-5 melanoma
[17] = test system: SK-OV-3 ovarian
[18] = test system: SN12C renal
[19] = test system: SNB-19 CNS
[20] = test system: SNB-75 CNS
[21] = test system: SW-620 colon
[22] = test system: T-47D breast
[23] = test system: TK-10 renal
[24] = test system: U251 CNS
[25] = test system: UACC-257 melanoma
[26] = test system: UACC-62 melanoma
[27] = test system: UO-31 renal

Cc1ccc(Cl)cc1Nc1nc(C(F)(F)F)ccc1C(N)=O
GI50 [1]: 3.28 µM
TGI [1]: > 100 µM
GI50 [2]: 4.63 µM
TGI [2]: 60.7 µM
GI50 [3]: 5.7 µM
TGI [3]: 31.2 µM
GI50 [4]: 13.2 µM
TGI [4]: 55.7 µM
GI50 [5]: 22.3 µM
TGI [5]: > 100 µM
GI50 [6]: 8.48 µM
TGI [6]: 49.4 µM
GI50 [7]: 29.4 µM
TGI [7]: > 100 µM
GI50 [8]: 14 µM
TGI [8]: 71.1 µM
GI50 [9]: 18.6 µM
TGI [9]: 46.8 µM
GI50 [10]: 10.5 µM
TGI [10]: 34 µM
GI50 [11]: 6.46 µM
TGI [11]: > 100 µM
GI50 [12]: 11.9 µM
TGI [12]: 41.2 µM
GI50 [13]: 4.46 µM
TGI [13]: 28 µM
GI50 [14]: 20.4 µM
TGI [14]: > 100 µM
GI50 [15]: 43.8 µM
TGI [15]: > 100 µM
GI50 [16]: 1.92 µM
TGI [16]: 6.6 µM
GI50 [17]: 16.9 µM
TGI [17]: > 100 µM
GI50 [18]: 5.5 µM
TGI [18]: 91.8 µM
GI50 [19]: 11.3 µM
TGI [19]: > 100 µM
GI50 [20]: 8.65 µM
TGI [20]: > 100 µM
GI50 [21]: 6.98 µM
TGI [21]: > 100 µM
GI50 [22]: 3.54 µM
TGI [22]: > 100 µM
GI50 [23]: 4.31 µM
TGI [23]: 18.5 µM
GI50 [24]: 4.09 µM
TGI [24]: 26.1 µM
GI50 [25]: 24.8 µM
TGI [25]: 83.5 µM
GI50 [26]: 6.56 µM
TGI [26]: 26.6 µM
GI50 [27]: 5.37 µM
TGI [27]: > 100 µM
